For data set [1], the target named is Tyrosine-protein kinase Lyn (Homo sapiens, UniProt P07948). In words: […] of Lyn (unknown origin).
The nature of data set [2]: AUC in ip dosed […] administered twice daily. The data set is classed as ADME, organism-based. As to conditions: in vivo.
Data set [3] is described as follows: Cmax in ip dosed […] administered twice daily. The data set is classed as ADME, organism-based. Also on record: route intraperitoneal. The note with it: in vivo.
Data set [4] is described as follows: Tmax in ip dosed […] administered twice daily. The class given is ADME, organism-based. The note with it: in vivo.
A short description of data set [5]: Bioavailability in ip dosed […] administered twice daily. As to conditions: in vivo. The class given is ADME, organism-based.
A short description of data set [6]: Toxicity in ip dosed […] administered twice daily. The note with it: in vivo. The class given is organism-based.
Data set [7] is described as follows: Drug uptake in human brain. The class given is ADME, tissue-based.

Tyrosine-protein kinase Lyn, sequence (P07948 whole entry): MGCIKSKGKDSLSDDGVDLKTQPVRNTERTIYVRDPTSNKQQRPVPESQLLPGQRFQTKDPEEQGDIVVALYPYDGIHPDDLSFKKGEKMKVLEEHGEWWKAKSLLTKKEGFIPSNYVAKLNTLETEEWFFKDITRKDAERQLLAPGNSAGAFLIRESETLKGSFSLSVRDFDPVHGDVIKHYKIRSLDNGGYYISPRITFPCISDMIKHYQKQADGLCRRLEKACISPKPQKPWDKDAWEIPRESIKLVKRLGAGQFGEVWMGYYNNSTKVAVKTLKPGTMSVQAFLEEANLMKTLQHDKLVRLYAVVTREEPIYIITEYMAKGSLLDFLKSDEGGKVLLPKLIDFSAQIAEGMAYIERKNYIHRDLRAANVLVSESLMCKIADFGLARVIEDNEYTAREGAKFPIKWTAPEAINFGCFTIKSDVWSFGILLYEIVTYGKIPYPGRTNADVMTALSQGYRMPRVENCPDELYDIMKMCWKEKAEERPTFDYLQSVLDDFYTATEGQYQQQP

As for `Cc1cccc(Oc2cnc(=O)[nH]c2)c1` [TOLIMIDONE], the response in data set [1] was half-maximal at 0.063 µM (EC50). Moreover, the AUC (commonly concentration integrated over time) in data set [2] was 4.78 µg·h/mL. For the same compound, in data set [3], the Cmax (usually the peak of the concentration-time curve) came to 6.54 µg/mL. For the same compound, the Tmax (commonly the time from dosing to the highest level) in data set [4] was 15 min. In addition, the bioavailability (as a rule, dose-corrected exposure relative to a reference, in per cent) in data set [5] is 53.9%. Besides, the MTD in data set [6] came out at 100 mg/kg. In data set [7], this compound came in with a Drug uptake of 1.3%.

These data come from ChEMBL document CHEMBL4627343, “High throughput in vivo phenotypic screening for drug repurposing: Discovery of MLR-1023 a novel insulin sensitizer and novel Lyn kinase activator with clinical proof of concept” (Bioorg Med Chem, 2020).
